Reference: patent US20110253135A1, “METAL COORDINATION COMPLEXES OF VOLATILE DRUGS” (ALEXZA PHARMACEUTICALS, INC., priority 2008, published 2011)
Read-outs that look alike come from different tables or passages of the source.

Key:
[1] = 25° C.; cited from earlier work
[2] = Drug aerosol from percussively ignited heat package: purity and recovered yield by HPLC; type: physicochemical

Compound: CN1CCCC1c1cccnc1 (stereo not shown) [Nicotine, nicotine]
- vapor pressure [1]: 0.0425 mmHg

Compound: CC(C)C(=O)OCC(=O)[C@@]12O[C@H](C3CCCCC3)O[C@@H]1C[C@H]1[C@@H]3CCC4=CC(=O)C=C[C@]4(C)[C@H]3[C@@H](O)C[C@@]12C [ciclesonide]
- purity of the resultant aerosol ([2]; percussively ignited heat package, greater than 800° C., air flow 20 L/min, film 1.58 μm alprazolam, 6.33 μm pramipexole, 2.53 μm ciclesonide): 85.6%

Compound: Cc1nnc2n1-c1ccc(Cl)cc1C(c1ccccc1)=NC2 [alprazolam]
- purity of the resultant aerosol [2]: 96.8%
- recovered yield of aerosol [2]: 100%
